Assay: gradient 5% acetonitrile 3 min, to 50% in 2 min, to 85% in 15 min, held 3 min, 100 µL/min
Conditions: column: Zorbax Extend-C18 2.1 x 50 mm; eluents: water / acetonitrile, 0.1% formic acid
How it was run: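 Standards, all pure, were combined into mixtures of ~100 molecules and run at 100 μL/min on a Zorbax Extend-C18 column (2.1 × 50 mm, 1.8 μm) with water and acetonitrile, each containing 0.1% formic acid. A coupled quadrupole time-of-flight mass spectrometer operated in positive and negative ionization mode. Retention time values come from computationally picked adduct peaks, each inspected manually.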

Compound	RP-LC retention time [s]
CN(C)C(=O)c1ccc2c(c1)n(Cc1ccc(F)cc1)c(=O)c1ccnn12	780
Cc1ccc(S(=O)(=O)N2CCCCC2CCNC(=O)c2cccn(C)c2=O)cc1 (stereo not given)	760
O=C(NCCc1noc(C2CC2)n1)c1ccc(Cl)s1	795
Cc1cccc(CNC(=O)CCc2c(-c3ccc(Br)cc3)nc3ccccn23)c1	718
COc1cccc(-c2cc3c(=O)n(Cc4nc(-c5ccc(Br)cc5)no4)ccn3n2)c1	1140
Cc1cccc(NC(=O)Cn2c(C(C)C)nc3c(c2=O)CCN(Cc2ccccc2)C3)c1	728
CC(C)Cc1ccc(S(=O)(=O)N(CC(=O)N2CCNCC2)CC2CCCO2)cc1 (stereo not given)	703
O=C(Nc1cnn(-c2ncc(N3CCSCC3)cn2)c1)NC1CCCCC1	759
Cc1cc(C(F)(F)F)nn1CC(=O)N1CCC(c2noc(-c3ccccn3)n2)C1 (stereo not given)	769
COc1cc(OC)cc(C(=O)NC2CCN(c3cc(-c4cccs4)[nH]n3)C2)c1 (stereo not given)	741
Cc1noc(C)c1C1CCCN1C(=O)Nc1ccccc1Br (stereo not given)	836
O=C(CCC(=O)N1CCOc2ccc(Cl)cc21)N1CCN(c2ccccn2)CC1	656
Cc1ccccc1CNC(=O)c1cn(-c2ccc(-c3nc(C(C)(C)C)no3)cn2)cn1	1100
COC(=O)c1cccc(NC(=O)NC(C(=O)N2CCc3ccccc32)C(C)C)c1 (stereo not given)	610
CN1CCc2nnc(C3CCN(C(=O)Nc4cc(F)cc(F)c4)C3)n2CC1 (stereo not given)	593
CCn1ccc2c(cc(C(=O)Nc3cc(OC)c(OC)c(OC)c3)n2C)c1=O	715
Cc1nc(NCc2ccco2)sc1C(=O)Nc1ccc(F)c(Cl)c1	900
Cc1noc(C2CN(C(=O)NC3CCCC3)CC23CCOCC3)n1 (stereo not given)	633
CCc1ccc(NC(=O)Cn2c(N3CCCCC3)nc(C)cc2=O)cc1	661
COc1cccc(NC(=O)Cn2nc3c(Oc4cccc(F)c4)nccn3c2=O)c1	839
CCCc1cc(N2CCN(C(=O)c3ccc4c(c3)OCO4)CC2)nc2nncn12	622
CCOC(=O)c1c(C)oc2ncnc(Nc3ccc4c(c3)OCCO4)c12	1120
COc1nccnc1N1CCC(NC(=O)Cc2cccnc2)C1 (stereo not given)	556

Compound	RP-LC retention time [s]
COc1ccc(N2CCN(C(=O)c3ccc4c(c3)NC(=O)C3CCCCN43)CC2)cc1 (stereo not given)	756
Cc1cc(Br)ccc1NS(=O)(=O)c1cc(-c2nc(C)c(C)s2)cs1	1110
Cc1ccn2cc(C(=O)NCc3ccccc3)nc2c1	636
COc1ccc(N2C(=O)CC(c3ccc(OC)c(OC)c3)CC2=O)cc1	780
CC(NS(=O)(=O)c1cc(-c2nc(C(C)(C)C)cs2)cs1)c1ccccc1 (stereo not given)	1240
Cc1cc(NC(=O)c2cc(Cl)ccc2Cl)n(C(C)C)n1	775
O=C(Nc1ccccc1C(F)(F)F)C1CCCN(C(=O)Cc2cccc3ccccc23)C1 (stereo not given)	998
COc1ccc(-c2nc(Cc3noc(-c4cccc(OC)c4)n3)c(C)o2)cc1	1030
Cc1cc(C)n(CCNC(=O)Nc2cccs2)n1	603
Cn1c(=O)cc(N2CCC[C@@H](N)C2)n(Cc2ccccc2C#N)c1=O	641
Cc1ccccc1CNC(=O)Cc1cn(C)c2ncccc12	689
CNC(=O)C(=O)NCC1CCN(S(C)(=O)=O)CC1	541
CCN1C(=O)c2ccccc2Oc2ccc(C(=O)NC3CC3)cc21	751
Cc1cccc2nnc(N3CCCC(C(=O)Nc4ccccc4)C3)n12 (stereo not given)	680
O=C(CCC1CCN(S(=O)(=O)c2ccccc2)CC1)NCC1CCCCC1	971
Cn1nc(-c2nnc(-c3ccccc3)o2)c2c1CCN(S(=O)(=O)c1ccc(C(C)(C)C)cc1)C2	1150
O=C(Nc1ccc(Br)cc1)N(c1ccccc1)c1ccccc1	1040
O=C(Nc1nc(-c2ccc(F)cc2)cs1)c1c(-c2ccccc2)nc2n1CCS2(=O)=O	1000
COc1ccc(Cl)cc1S(=O)(=O)N1CCC(OC2CCN(C)CC2)CC1	791
CN1C(=O)CC2(C)C1=CCc1scnc12 (stereo not given)	636
Cc1ccc(-c2nc3nc(C)cc(C)n3c2Nc2ccccc2C)cc1	782
Cc1cc(NC(=O)c2cn(-c3ccc(C#N)cc3)cn2)ccc1Br	1020
CCOC(=O)c1cnc2cc(Cl)c(OC)cc2c1N1CCN(c2cccc(Cl)c2)CC1	1240

Compound	RP-LC retention time [s]
Cc1nc2c(sc3nc(-c4ccccc4)ccc32)c(=O)n1CC(=O)Nc1cccc(C(C)C)c1	1210
Cc1ccc(C)c(C2=NC3(CCN(C(C)C)CC3)NC(c3cc(Cl)ccc3O)C2)c1 (stereo not given)	679
COc1ccc(OCc2nnc3sc(C4COc5ccccc5O4)nn23)cc1 (stereo not given)	913
CCOC(=O)c1c(C)[nH]c(CCC(=O)NCCc2c[nH]c3ccccc23)c1C	715
Cc1ccc(-n2c(=O)n(CC(=O)NCCN3CCCCC3)c3cccnc32)cc1	616
CNC(=O)c1cnn(-c2ccc(-c3nc(C4CC4)no3)cn2)c1C	746
CCc1nnc(-c2cn(CC(=O)NC3CCCCCC3)c3ccccc23)o1	790
COCc1nc(C2CCN(C(=O)C3CCC3)C2)no1 (stereo not given)	672
CCOC(=O)Cn1cccc(S(=O)(=O)N2CCC(C)CC2)c1=O	814
Oc1cccc(-c2nc3cnccn3c2Nc2ccc(F)cc2)c1	728
O=C1C2N=NN(Cc3nc(-c4cccc(Cl)c4)no3)C2C(=O)N1c1ccc2c(c1)CCC2 (stereo not given)	1130
CCC(C(=O)NC1(c2nc(-c3cccnc3)no2)CCCCC1)c1ccccc1 (stereo not given)	1010
Cc1cc(C(N)=O)c2cc(Cl)ccc2n1	592
Cc1nc(-c2ccc(-c3noc(C(C)NC(=O)c4ccccc4)n3)cc2)cs1 (stereo not given)	963
CCN(CC)CCCNC(=O)C1c2ccccc2C(=O)N1Cc1ccc(C)cc1 (stereo not given)	633
O=S(=O)(c1ccccc1)N1CCC(c2noc(C3CC3)n2)C1 (stereo not given)	866
CCc1nc2cc(N3CCC(C(=O)N4CCCC4)CC3)cnc2nc1CC	714
Cc1ccnc(NS(=O)(=O)c2ccc(NC(=O)C3COc4ccccc4O3)cc2)n1 (stereo not given)	711
CCCCn1c(=O)c2ccccc2n(Cc2nc(-c3ccccc3Br)no2)c1=O	1170
CCOc1ccc(NC(=O)c2cccc3ccccc23)c([N+](=O)[O-])c1	1050
CCN(CC)C(=O)c1cc2c(s1)CCC(C(=O)O)C2 (stereo not given)	703
COCC(C)(O)CNC(=O)C(=O)NCCc1ccccc1 (stereo not given)	660
Cc1oc(-c2[nH]ncc2C(=O)N(C)C)cc1S(=O)(=O)N1CCN(c2ccccc2)CC1	746

Compound	RP-LC retention time [s]
CSc1ccc(CNC(=O)c2[nH]c3cc(C)sc3c2CN(C)C)cc1	689
CCc1nc(-c2csc(S(=O)(=O)N3CCCC(C(=O)Nc4ccc(C)cn4)C3)c2)no1 (stereo not given)	831
O=C(Nc1ccccc1)c1ccc(N2CCC(NCc3ccc(F)c(F)c3)C2)nc1 (stereo not given)	568
COc1ccc(NC(=O)CSc2nc3ccccc3nc2C)cc1	802
Cc1ccc(NC(=O)N2CCC(C(C)C(=O)Nc3cc(C)cc(C)c3)CC2)cc1 (stereo not given)	970
O=C(NCCc1cccs1)C1CCCN(c2ncnc3c2oc2ccccc23)C1 (stereo not given)	764
Cc1cccc(OCC(=O)Nc2nc(-c3ccccc3)cs2)c1	1090
O=C(NCCc1cccs1)C1CCN(S(=O)(=O)c2ccc(-c3noc(C4CC4)n3)cc2)CC1	946
COc1ccc(-c2nc(Cc3noc(-c4ccc(C#N)cc4)n3)c(C)o2)cc1	1070
O=C(O)CCc1conc1-c1ccc(F)cc1	708
Cc1cc2c(cc1S(=O)(=O)N1CCCC1C(=O)Nc1cccc(Cl)c1C)OC(C)C(=O)N2 (stereo not given)	891
O=C(Nc1cc(F)ccc1F)c1c(O)c2cccnc2n(-c2cccc(F)c2)c1=O	1260
CCOCCCNC(=O)C1CCN(c2cc(Oc3ccc(CC)cc3)ncn2)CC1	646
NC(=O)Cc1csc(NC(=O)c2csc(Nc3ccc(OC(F)F)cc3)n2)n1	688
CCn1cc(-c2nc(C)c(C(=O)NCc3ccncc3)s2)c2cccnc21	616
Cc1nc(Cn2cccc2C(=O)Nc2cc(Cl)ccc2C)no1	915
CN1CCN(C(=O)CCCN2C(=O)CCn3nc(-c4cn(C)c5ccccc45)cc32)CC1	571
O=C(Cc1scnc1-c1cccs1)N1CCN(c2ccccn2)CC1	596
COc1ccc(CNS(=O)(=O)c2cc(-c3nc(C(C)(C)C)cs3)cs2)cc1	1200
C=CCNC(=O)[C@@H]1[C@H](c2cc(OC)c(OC)c(OC)c2)c2cc3c(cc2[C@H](O)[C@H]1CO)OCO3	649
OC[C@@H]1CN(C2CCCC2)C[C@H]1c1nc(-c2cccnc2)no1	553

Source: the METLIN SMRT retention time set (Domingo-Almenara et al. 2019)
